From patent publication US20210393621A1, “COMBINATION SEROTONIN SPECIFIC REUPTAKE INHIBITOR AND SEROTONIN 1A RECEPTOR PARTIAL AGONIST FOR REDUCING L-DOPA-INDUCED DYSKINESIA” (The Research Foundation for The State University of new York, priority 2018, published 2021)
Entries after “also recorded” stand apart in the source; their conditions may differ. Like-named read-outs stand apart in the source and are kept apart here.

Key:
[1] = in vivo; cited from earlier work
[2] = tested on: striatal c-Fos, PPD, PPE, PPT and 5-HT1AR mRNA; test: Experiment 2: real-time RT-PCR of striatal gene expression
[3] = tested on: 6-OHDA-lesioned hemi-parkinsonian rats; test: Experiment 1: forepaw adjusting steps (FAS); format: in vivo, Sprague-Dawley rats; conditions: L-DOPA-primed rats; VZD 0, 10 or 20 mg/kg + L-DOPA 6 mg/kg; 60 min post-L-DOPA
Source text: (§1) Conti et al., 2014). […] Forepaw adjusting steps (FAS): The FAS test is a measure of forelimb akinesia performed according to previous protocols (Bishop et al., 2012; Chang et al., 1999). Data are presented as mean percent intact stepping where the sum of the total steps with the lesioned forepaw was divided by the total steps with the unlesioned forepaw multiplied by 100. Lower percent intact scores indicate greater forelimb akinesia. Prior to baseline, rats received 2 acclimation periods. On-treatment FAS was performed 60 min post-L-DOPA.

[4] = dry and wet AMD; patients taking versus not taking L-DOPA; cited from earlier work
[5] = tested on: 6-OHDA-lesioned hemi-parkinsonian rats; test: Experiment 2: forepaw adjusting steps (FAS); format: in vivo, Sprague-Dawley rats; conditions: L-DOPA-naive rats; VZD 0, 10 or 20 mg/kg + L-DOPA 6 mg/kg; Days 1, 8, 15, 22
Method: as §1, with “[…].). All VZD injections were administered 5 min prior to LD. […] AIMs values expressed are the median sum of axial, limb, and orolingual (ALO) behaviors. […] Values are expressed as medians [±median absolute difference (M.A.D.)].” for “Conti et al., 2014).”

[6] = tested on: striatal and raphe tissue monoamines; test: Experiment 1: HPLC of tissue monoamines and metabolites in striatum and dorsal raphe nucleus; conditions: for 5-HIAA / 5-HT / 5-HT Turnover / DA / DA Turnover / DOPAC: Striatum, VZD(0) + LD(6) mg/kg, 60 min post-LD
Method: Three-weeks post-lesion, animals were divided into 2 equally disabled groups, measured by forepaw adjusting steps (FAS, see below). One group (n=8) began receiving 14 days of daily vehicle (0.9% NaCl+0.1% ascorbic acid) and the other (n=22) received L-DOPA methyl ester (6 mg/kg, s.c.; Sigma)+DL-serine 2-(2,3,4-trihydroxybenzyl) hydrazine hydrochloride (benserazide; 15 mg/kg, s.c.; Sigma), hereafter L-DOPA, dissolved in vehicle at a volume of 1 mg/kg. Treatment persisted for 14 days to produce stable AIMs expression (Putterman et al., 2007; Conti et al., 2014). Thereafter, L-DOPA-treated animals with Axial, Limb, and Orolingual (ALO) AIMs (see description below, FIG. 1A)<30 were excluded from the study and the remaining L-DOPA-treated animals were divided into 3 equally dyskinetic groups. […] Daily injections continued over 23 days, with behavior assayed on Days 15, 22, 29, and 36. On Day 37, animals were killed 60 min post-treatment Left and right dorsal striata and DRN were dissected and flash frozen for HPLC analyses.
High-performance liquid chromatography (HPLC): HPLC, a method for semi-automated catecholamine analysis with coulometric detection, was performed according to prior protocols (Bishop et al., 2009) to determine the tissue levels of monoamines, their metabolites, and monoamine turnover in the striatum and DRN. The limit of detection for DOPAC, DA, 5-hydroxyindoleacetic acid (5-HIAA) and 5-HT was 10^−10 M. Final oxidation current values were plotted on a standard curve from 10^−6 M to 10^−9 M and expressed as pg of monoamine or metabolite per mg of tissue unless otherwise specified.
On the final treatment day, animals were sacrificed 60 min post-LD treatment and left and right striata and dorsal raphe nucleus (DRN) were collected for high performance liquid chromatography (HPLC) analysis. Values (means±standard mean error) are expressed as picograms of monoamine or metabolite per milligram wet tissue weight. Turnover estimates were determined by dividing a subjects metabolite value by its corresponding monoamine. Differences were assessed by a 2×4 (lesion×treatment) ANOVA, followed by Fisher's LSD post-hocs when appropriate. *p<0.01 vs lesion vs intact; +p<0.05 vs all; ^p<0.05 vs VZD (0)+LD (0); #p<0.05 vs VZD (0)+LD (6)

5HT2A = conditions: rat cerebral cortex; read-out: affinity Ki; cited from earlier work
[7] = tested on: extracellular 5-HT, dopamine and norepinephrine; conditions: cited from earlier work; for extracellular dopamine and norepinephrine: rat brain, vilazodone 1 and 10 mg/kg; for maximal increase of extracellular 5-HT: rats, acute systemic injection, measured 3 h after injection
DRN 5-HT neurons = test: Example 3: in vivo single-unit recordings of DRN 5-HT neurons; parameters: species or system rats
[8] = tested on: L-DOPA-primed 6-OHDA-lesioned rats; test: Experiment 3: AIMs with 5-HT1AR or 5-HT1BR antagonist before Vilazodone and L-DOPA; format: in vivo, Sprague-Dawley rats; conditions: then VZD 0 or 10 mg/kg, then L-DOPA 6 mg/kg, s.c.
Method: In each study, the LD-primed rats received (FIG. 4A) the 5-HT1AR antagonist WAY100635 [WAY; 0 or 0.5 mg/kg, s.c.] or (FIG. 4B) the 5-HT1BR antagonist NAS [NAS; 0 or 0.3 mg/kg, s.c.]) 5 min prior to VZD (0 or 10 mg/kg, s.c.) injected 5 min prior to LD (6 mg/kg, s.c.) in a within-subjects counterbalanced design. ALO AIMs were evaluated and are shown for every 10 min for 3 h after LD administration.
All 6-OHDA-lesioned rats (n=17) were tested on the FAS prior to treatment regimens to establish baseline motor performance. Three-weeks post-surgery, all rats were primed with L-DOPA (6 mg/kg, s.c.) for 14 days.
Beginning 10 min post-treatment, a trained and blinded observer assigned a severity score (0-4) to each of the ALO AIMs based on 1 min ratings every 10 min for 3 h: 0, not present; 1, present from 1-29 s; 2, present 30-59 s; 3, present all 60 s, but interruptible by a cylinder tap; 4, present 60 s and not interruptible by a cylinder tap.

[9] = tested on: unilateral 6-OHDA-lesioned rats; test: Example 2: L-DOPA-induced dyskinesias (LIDs) scoring; format: in vivo, Sprague-Dawley rats
Method: 6-OHDA-induced dopaminergic lesions: Adult male Sprague-Dawley rats were randomly assigned to groups receiving either a 6-OHDA or sham lesion. […] [[…] 2019]. […] Rats were treated for 5 consecutive days/week (Mon-Fri), for 2 weeks. […] All rats were evaluated three times per week for the presence of L-DOPA-induced dyskinesias (LIDs) (Wed-Fri) and once for the stepping test (Tue). […] Scores were given over 1 min epochs and classified as axial, limb, orolingual and locomotive. […] Arrows=inhibitory input; dashed arrows=compromised function. The severity of each LID was scored using a standard scale. Each dyskinetic behavior was given an intensity and frequency score, which were then multiplied. The average sum of the products of each LID was determined in each animal.

5-HT1A receptor = molecular target: T1, 5-HT1A receptor (Homo sapiens, UniProt P08908); parameters: expressed in transfected cells; host or cells: SF9 cells; conditions: 5-HT1A receptor expressed in SF9 cells; cited from earlier work
T1 sequence (P08908 1-422): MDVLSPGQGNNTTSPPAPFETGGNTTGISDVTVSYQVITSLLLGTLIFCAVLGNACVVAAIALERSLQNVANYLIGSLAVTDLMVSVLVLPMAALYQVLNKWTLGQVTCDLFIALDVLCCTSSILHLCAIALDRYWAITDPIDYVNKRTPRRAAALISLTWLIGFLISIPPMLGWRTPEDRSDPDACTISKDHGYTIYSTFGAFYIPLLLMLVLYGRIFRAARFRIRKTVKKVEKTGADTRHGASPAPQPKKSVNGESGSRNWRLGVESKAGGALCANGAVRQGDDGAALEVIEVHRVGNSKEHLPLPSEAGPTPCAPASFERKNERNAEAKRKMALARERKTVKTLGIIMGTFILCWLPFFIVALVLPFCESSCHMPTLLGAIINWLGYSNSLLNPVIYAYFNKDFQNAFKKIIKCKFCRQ

[10] = tested on: unilateral 6-OHDA-lesioned rats; test: Example 2: stepping test; format: in vivo, Sprague-Dawley rats; conditions: vilazodone 10 mg/kg or escitalopram 12.5 mg/kg + L-DOPA 5 mg/kg; 60 minutes post L-DOPA
Method: 6-OHDA-induced dopaminergic lesions: Adult male Sprague-Dawley rats were randomly assigned to groups receiving either a 6-OHDA or sham lesion. All rats received desipramine (10 mg/kg i.p.) 30 min prior to surgery to prevent the lesioning of norepinephrine neurons by 6-OHDA. A single injection of 6-OHDA (8 μg of 6-OHDA free base in 4 μl of 0.1% ascorbic acid) was delivered into the right medial forebrain bundle (coordinates taken from bregma: −4.3 mm AP, 1.6 mm ML, −8.3 mm DV). The same experimental treatment was performed for the sham-operated rats using vehicle (4 μl of 0.1% ascorbic acid). A standard stepping test was used to evaluate the effectiveness of the 6-OHDA lesion.
Rats were treated for 5 consecutive days/week (Mon-Fri), for 2 weeks. On the second day of each week, stepping tests were performed prior to drug administration, and 60 minutes post L-DOPA treatment.

[11] = lesioned striata, VZD 0, 10 or 20 mg/kg + L-DOPA 6 mg/kg daily, day 23, 60 min post-injection

N[C@@H](Cc1ccc(O)c(O)c1)C(=O)O [L-DOPA, L-3,4-dihydroxyphenylalanine]
fraction that crosses the blood-brain barrier [1]: 5-10% | striatal PPT mRNA ([2]; FIG. 6B): did not increase striatal PPT | striatal PPE mRNA ([2]; lesioned striata, L-DOPA 6 mg/kg, Vilazodone 20 mg/kg): significantly increased PPE | striatal PPD mRNA [2, 11]: significantly increased PPD | striatal c-Fos mRNA [2, 11]: potentiated c-Fos | FAS motor performance versus baseline [3]: significant improvements on motor performance over baseline | delay of onset of AMD [4]: around 8 years | FAS stepping relative to baseline [5]: significant increases in motor ability on each test day | DRN levels of DA, DOPAC and DA Turnover ([6]; L-DOPA 6 mg/kg): significantly increased DRN levels of DA, DOPAC and DA Turnover | 5-HIAA ([6]; Intact): 650 ± 68.9 picograms per milligram wet ti | 5-HT ([6]; Intact): 241 ± 29.6^ picograms per milligram wet ti | 5-HT Turnover ([6]; Intact): 2.77 ± 0.15+ | DA ([6]; Intact): 4561 ± 210 picograms per milligram wet ti | DA Turnover ([6]; Intact): 0.89 ± 0.04 | DOPAC ([6]; Intact): 4051 ± 224 picograms per milligram wet ti | 5-HIAA ([6]; Lesion): 907 ± 82.5 picograms per milligram wet ti | 5-HT ([6]; Lesion): 264 ± 39.6 picograms per milligram wet ti | 5-HT Turnover ([6]; Lesion): 3.93 ± 0.63 | DA ([6]; Lesion): 83.3 ± 7.99 picograms per milligram wet ti | DA Turnover ([6]; Lesion): 1.42 ± 0.23 | DOPAC ([6]; Lesion): 127 ± 30.7 picograms per milligram wet ti

O=S1(=O)N(CCN2CC=C(c3c[nH]c4cc(F)ccc34)CC2)c2cccc3c2N1CCC3 [LY367265]
Ki (5HT2A): 490 nM

O=C1CC2(CCCC2)CC(=O)N1CCCCN1CCN(c2ncccn2)CC1 [buspirone]
extracellular dopamine and norepinephrine [7]: caused an increase

COc1ccccc1N1CCN(CCN(C(=O)C2CCCCC2)c2ccccn2)CC1.O=C(O)/C=C\C(=O)O [WAY100635, N-[2-[4(2-Methoxyphenyl)-1-piperazinyl]ethyl]-N-2-pyridinylcyclohexanecarboxamide maleate salt]
spontaneous firing of DRN 5-HT neurons (DRN 5-HT neurons; i.v., 8-OH-DPAT then WAY-100635 100 μg/kg, BFP and D2Rs expressing rats): return to baseline firing was observed | summed ALO AIMs, 5-HT1AR study ([8]; WAY100635 0 or 0.5 mg/kg): partially reversed the anti-dyskinetic efficacy of Vilazodone | effect of 5-HT1A blockade on vilazodone's benefit on LIDs ([9]; WAY100635 with vilazodone + L-DOPA): reverses the beneficial effects of vilazodone on LIDs

C1=C(CN2CCOCC2)COc2c1cccc2OC[C@H]1CNCCO1.CS(=O)(=O)O [NAS-181, (R)-(+)-2-(3-morpholinomethyl-2H-chromen-8-yl) oxymethyl-morpholine methane-sulfonate]
ALO AIMs, 5-HT1BR study ([8]; NAS-181 0 or 3.0 mg/kg): did not significantly alter AIMs or their reduction by Vilazodone

c1ccc2c(c1)OC[C@H](CNCCCOc1ccc3c(c1)OCO3)O2 [MKC-242]
extracellular dopamine and norepinephrine [7]: caused an increase

Br.CCCN(CCC)C1CCc2cccc(O)c2C1 (centres unmarked) [8-OH-DPAT, 8-hydroxy-2-(dipropylamino) tetralin hydrobromide]
spontaneous firing of DRN 5-HT neurons (DRN 5-HT neurons; rat, in vivo, iv): suppressed the spontaneous firing of a DRN neuron | increase of [35S]GTPγS binding compared to vehicle (5-HT1A receptor): eightfold | extracellular dopamine and norepinephrine [7]: caused an increase

CN(C)CCC[C@@]1(c2ccc(F)cc2)OCc2cc(C#N)ccc21 [Escitalopram]
forelimb akinesia and L-DOPA prokinetic / therapeutic efficacy (stepping test) [10]: affected L-DOPA therapeutic efficacy; also recorded: interfered with the therapeutic efficacy of L-DOPA | LIDs score / severity ([9]; pretreatment with vilazodone 10 mg/kg or escitalopram 12.5 mg/kg before L-DOPA 5 mg/kg, 2 weeks): significantly reduced LIDs severity; also recorded: significant reduction in total LIDs score

CNCCC(Oc1ccc(C(F)(F)F)cc1)c1ccccc1 (centres unmarked) [fluoxetine]
maximal increase of extracellular 5-HT ([7]; frontal cortex): 165% | maximal increase of extracellular 5-HT ([7]; ventral hippocampus): 274%
